Measured values from patent US12371664B2, “Medium for direct differentiation of pluripotent stem cell-derived mesenchymal stem cell, method for preparing mesenchymal stem cell by using same, and mesenchymal stem cell prepared thereby” (CHA BIOTECH CO., LTD., priority 2018, dated 2025).

Assays:
[1] = tested on: human embryonic stem cells; assay: Analysis of cytomorphological features (spindle shape) under a phase-contrast microscope; type: cell-based; conditions: FIG. 10; 10 μM RS1, 10 μM Y27632, 1 μM SB431542 as applicable
Text: For analysis of cytomorphological features of mesenchymal stem cells obtained in Example 1 and Comparative Example 1, a mesenchymal stem cell-specific proliferation pattern (spindle shape) was identified under a phase-contrast microscope (Nikon TE-2000), and the results are shown in FIGS. 2 and 3, respectively.
For analysis of cytomorphological difference by treatment with the DNA repair agent or the ROCK inhibitor alone on the basis of period, morphologies of cells of Example 1 and Comparative Examples 2 and 3 were analyzed in the same manner as in Experimental Example 1. As a control, cells treated with the TGF-β inhibitor SB431542 alone without being treated with both the DNA repair agent and the ROCK inhibitor were used, and the results are shown in FIG. 10.

[2] = tested on: transcription factor required for endodermal differentiation / mesodermal differentiation; conditions: background art; cited from earlier work

NC(=O)c1ccc(-c2nc(-c3ccc4c(c3)OCO4)c(-c3ccccn3)[nH]2)cc1.O [SB431542, 4-[4-(1,3-benzodioxol-5-yl)-5-(2-pyridinyl)-1H-imidazol-2-yl]-benzamide hydrate]
cytomorphological observation (mesenchymal stem cell proliferation pattern of the spindle shape) [1]: most of the cells disappeared on the 30th day and uniformity deteriorated | concentration having effects on inhibiting the transcription factor for endodermal differentiation and increasing that for mesodermal differentiation [2]: ≥ 1 µM
